# Results from PubChem BioAssay AID1259332 (Broad Institute, 2017).
# Active and inactive are the calls of the source. How the calls were made is not given here.
# Assay: CD40 pathway inhibition in B cells – B cell lineage, dose response (AID 1259332);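 further: cells stimulated with CD40 ligand tCD40L; 0% = neutral control wells and -100% = positive control wells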
# Conditions: B cell line, CD40 signaling inhibition reporter; at 3.5 µM (top of the series)
row,SMILES,"activity change, negative = inhibition"
1,Cc1noc(C)c1S(=O)(=O)Nc1ccc2c(c1)C(=O)N([C@H](C)CO)C[C@H](C)[C@@H](CN(C)C(=O)Nc1cccc3ccccc13)OCCCC[C@H](C)O2,-1% (inactive)
2,O=S(=O)(c1cccc2cnccc12)N1CCNCC1,-9.07% (inactive)

# Same assay, conditions: B cell line, CD40 signaling inhibition reporter; at 10 µM (top of the series)
row,SMILES,"activity change, negative = inhibition"
1,CCCCn1c(NC(=O)c2ccc(Br)o2)c(S(=O)(=O)c2ccccc2)c2nc3ccccc3nc21,6.39% (inactive)
2,N=C(N)c1ccc(OCCCCCOc2ccc(C(=N)N)cc2)cc1,-0.281% (inactive)
3,CCCCc1nc2ccccc2[nH]1,2.81% (inactive)
4,C(=Cc1c[nH]c2ccccc12)c1nccc2ccccc12,74.5% (inactive)
5,Cc1cc(C(=O)COC(=O)c2cccn2C)c(C)n1Cc1ccco1,-4.27% (inactive)
6,Cc1cc(C)c2c(c1)SC1=NC(c3ccccc3)(C(F)(F)F)NC(=O)N12 (stereo unspecified),8.7% (inactive)
7,C[C@@H]1CN([C@@H](C)CO)C(=O)c2c(c3ccccc3n2C)-c2ccccc2CO[C@H]1CN(C)S(=O)(=O)c1ccc([N+](=O)[O-])cc1,-6.57% (inactive)
8,CCN1C(=O)C(CC(=O)Nc2ccc(OC)cc2)N(CCc2ccc(F)cc2)C1=S (stereo unspecified),-3.22% (inactive)
9,O=C1C(Br)=C(c2ccccc2)C(c2ccccc2)=C1c1ccccc1,-7.86% (inactive)
10,Cc1c(C(=O)c2cccc3ccccc23)c2cccc3c2n1[C@H](CN1CCOCC1)CO3,-18.3% (inactive)
11,CC(C)(C)n1cc(C(=O)c2ccc3ccccc3c2O)cn1,-16.1% (inactive)
12,O=C(Nc1ccccc1F)N1CCCCN2[C@H](CO)[C@H](c3ccc(/C=C/c4ccccc4)cc3)[C@H]2C1,-13.9% (inactive)
13,NS(=O)(=O)c1nn2cc(-c3ccccc3)nc2s1,-27.6% (inactive)
14,CC(C)Cc1ccc(C(C)/C=C2/CCC(CN3CCCCC3)C2=O)cc1 (stereo unspecified),-18.1% (inactive)
15,Cc1noc(C)c1S(=O)(=O)Nc1ccc2c(c1)C(=O)N([C@@H](C)CO)C[C@H](C)[C@@H](CN(C)C(=O)Nc1cccc3ccccc13)OCCCC[C@H](C)O2,-10.1% (inactive)
16,C[C@@H]1CN([C@@H](C)CO)S(=O)(=O)c2ccc(C#Cc3ccccc3F)cc2O[C@H]1CN(C)C(=O)Cc1cccnc1,-17.7% (inactive)
17,C[C@@H]1CN([C@H](C)CO)C(=O)c2c(c3ccccc3n2C)-c2ccccc2CO[C@H]1CN(C)C(=O)c1cc(Cl)cc(Cl)c1,-4.87% (inactive)

row,SMILES,"activity change, negative = inhibition"
1,COC(=O)c1ccc2c(=O)[nH]c(COC(=O)c3c(-c4ccccc4)noc3C)nc2c1,7.81% (inactive)
2,CC(C)OC(=O)CC1C(=O)NCCN1C(=S)NC(=O)c1cccs1 (stereo unspecified),15.3% (inactive)
3,C=C1C(=O)OC2C=C(CO)CCC=C(CO)CC(OC(=O)C(C)C)C12 (stereo unspecified),14% (inactive)
4,CC(=O)Nc1nc2nc(-c3ccccc3)cc(-c3ccccc3)n2n1,6.86% (inactive)
5,Cc1ccc(-c2nn3c(C)nnc3c3ccccc23)cc1S(=O)(=O)NCc1ccccc1,3.44% (inactive)
6,OC(CCN1CCCCC1)c1ccc(-c2ccccc2)cc1 (stereo unspecified),40.4% (inactive)
7,O=C1C(O)CC2c3ccccc3CC3(CCCC3)N12 (stereo unspecified),0.899% (inactive)
8,O=C1Cc2c([nH]c3ccc(Br)cc23)-c2ccccc2N1,17.8% (inactive)
9,Oc1cc(O)cc(/C=C/c2ccc(O)c(O)c2)c1,-10.7% (inactive)
10,CCN(CC(=O)Nc1ccc(NC(C)=O)cc1)C(=O)C1CCCN(C(=O)c2ccc(Cl)cc2)C1 (stereo unspecified),0.336% (inactive)
11,O=C(c1ccc(-c2ccc([N+](=O)[O-])cc2)o1)N1CCCC(C(F)(F)F)C1 (stereo unspecified),7.32% (inactive)
12,CC12CN3CC(C)(CN(C1)C3c1ccc3c(c1)OCO3)C2=O (stereo unspecified),6.2% (inactive)
13,CCCC(C)Sc1nc2c([nH]1)c(=S)n(C)c(=O)n2C (stereo unspecified),-8.82% (inactive)
14,COc1ccc(S(=O)(=O)Nc2ccc3c(c2)C(=O)N([C@@H](C)CO)C[C@@H](C)[C@H](CN(C)Cc2ccc(C(F)(F)F)cc2)OCCCC[C@@H](C)O3)cc1,-0.502% (inactive)
15,Cc1ccc(C2(C)NC(=O)N(CC(=O)Nc3cccnc3Cl)C2=O)cc1 (stereo unspecified),-2.81% (inactive)
16,OC1(c2ccc(Cl)c(C(F)(F)F)c2)CCN(CCCC(c2ccc(F)cc2)c2ccc(F)cc2)CC1,3.82% (inactive)
17,Cc1ccc(C(CC(=O)NCc2ccco2)c2ccc(OC(C)C)cc2)cc1 (stereo unspecified),3.92% (inactive)
